Assay results reported in article PMC9804871, “Effect of Opicapone on Levodopa Pharmacokinetics in Patients with Fluctuating Parkinson's Disease” (Movement Disorders, 2022).
Marks after values point to notes of the source that are not given here.

Assays:
[1] = 12-hour 3-O-methyldopa plasma pharmacokinetics; assay type: in vivo, human (patients with PD); conditions: for 3-O-methyldopa Cmax,max, Geometric Mean (90% CI): N 12; for 3-O-methyldopa tmax: median; for 3-O-methyldopa Cmax,max: mean (%CV)
Description: Following screening, all patients received a daily LD/CD dose of 500/125 mg for 2 weeks, administered as LD/CD 100/25 mg five times a day (five‐intake LD/CD 500/125 mg), fixed every 3 hours (from 8 AM to 8 PM) at pharmacokinetic day. Patients were then randomly assigned (1:1) to receive two different regimens of opicapone 50 mg plus LD/CD (400/100 mg daily) for an additional 2 weeks. • Patients on opicapone regimen 1 received LD/CD 100/25 mg four times a day plus opicapone 50 mg at least 1 hour after the last administration of LD/CD each day (four‐intake LD/CD 400/100 mg plus opicapone 50 mg), fixed every 4 hours (from 8 AM to 8 PM) at pharmacokinetic day. • Patients on opicapone regimen 2 received alternating LD/CD 100/25 mg and 50/12.5 mg doses (ie, 100/25 mg, 50/12.5 mg, 100/25 mg, 50/12.5 mg, and 100/25 mg) five times a day plus opicapone 50 mg at least 1 hour after the last administration of LD/CD each day (five‐intake LD/CD 400/100 mg plus opicapone 50 mg), fixed every 3 hours (from 8 AM to 8 PM) at pharmacokinetic day.
The primary objective of the study was to evaluate the pharmacokinetics of LD in the two opicapone LD/CD 400/100 mg dosing regimens (four and five intakes) when compared with the five‐intake LD/CD 500/125 mg regimen without opicapone. The pharmacokinetics study endpoint was set after 2 weeks of each treatment regimen (ie, at the end of the initial five‐intake LD/CD 500/125 mg treatment regimen and at the end of the LD/CD 400/100 mg plus opicapone treatment). Pharmacokinetic evaluation occurred over 12 hours with sampling every 30 minutes, except for the last sample following each LD dose in the opicapone plus four LD intake regimen, which was sampled at 1 hour. The main pharmacokinetics parameters assessed included maximum observed plasma concentration (Cmax), time to achieve peak plasma levels (tmax), minimum observed plasma concentration (Cmin), plasma elimination half‐life (t1/2), area under the curve (AUC), and fluctuation index (FI; as an expression of peak‐to‐trough fluctuation, Cmax, and Cmin, relative to average concentration [Cavg]). The pharmacokinetics of the LD metabolite 3‐O‐methyldopa (3‐OMD) was also evaluated.
Descriptive statistics were used to summarize the pharmacokinetics parameters for LD and 3‐OMD for each of the three regimens. […] No formal comparison was performed between opicapone regimens. Pharmacokinetic parameters were evaluated within the same population for each LD/CD 400/100 mg plus opicapone treatment regimen compared with the LD/CD 500/125 mg without opicapone regimen. Geometric mean ratios and corresponding 90% confidence intervals (CIs) for the LD and 3‐OMD log‐transformed pharmacokinetics parameters (AUCtotal, Cmax,max and Cmin,min [only for LD]) were calculated using a paired t test for the comparison between the five‐intake LD/CD 500/125 mg treatment without opicapone and each of the two LD/CD 400/100 mg plus opicapone regimens; only data from completers (patients with data for both regimens) were used for this analysis.

[2] = 12-hour levodopa plasma pharmacokinetics; assay type: in vivo, human (patients with PD); conditions: for Levodopa AUCτ / Levodopa Cavg / Levodopa Cmax / Levodopa Cmin: mean; for Levodopa tmax: median; for Levodopa Cmax (over all intakes of the 12-hour pharmacokinetics; Cmax,max) / Levodopa Cmin (over all intakes, excluding first predose; Cmin,min): mean (%CV); for Levodopa Cmin,min, geometric mean (90% CI): N 11; for Levodopa Cmax,max, geometric mean (90% CI): N 12
Description: The study design is illustrated in Figure 1.
Pharmacokinetic evaluation occurred over 12 hours with sampling every 30 minutes, except for the last sample following each LD dose in the opicapone plus four LD intake regimen, which was sampled at 1 hour. The main pharmacokinetics parameters assessed included maximum observed plasma concentration (Cmax), time to achieve peak plasma levels (tmax), minimum observed plasma concentration (Cmin), plasma elimination half‐life (t1/2), area under the curve (AUC), and fluctuation index (FI; as an expression of peak‐to‐trough fluctuation, Cmax, and Cmin, relative to average concentration [Cavg]). The pharmacokinetics of the LD metabolite 3‐O‐methyldopa (3‐OMD) was also evaluated.
Descriptive statistics were used to summarize the pharmacokinetics parameters for LD and 3‐OMD for each of the three regimens. […] No formal comparison was performed between opicapone regimens.

[3] = 5-intake LD/CD 500/125mg vs 4-intake LD/CD 400/100mg plus OPC 50mg, 1st LD/CD intake, mean
[4] = 5-intake LD/CD 500/125mg vs 4-intake LD/CD 400/100mg plus OPC 50mg, 2nd LD/CD intake, mean
[5] = 5-intake LD/CD 500/125mg vs 4-intake LD/CD 400/100mg plus OPC 50mg, 3rd LD/CD intake, mean
[6] = 5-intake LD/CD 500/125mg vs 4-intake LD/CD 400/100mg plus OPC 50mg, 4th LD/CD intake, mean
[7] = 5-intake LD/CD 500/125mg vs 5-intake LD/CD 400/100mg plus OPC 50mg, 1st LD/CD intake, mean
[8] = 5-intake LD/CD 500/125mg vs 5-intake LD/CD 400/100mg plus OPC 50mg, 2nd LD/CD intake, mean
[9] = 5-intake LD/CD 500/125mg vs 5-intake LD/CD 400/100mg plus OPC 50mg, 3rd LD/CD intake, mean
[10] = 5-intake LD/CD 500/125mg vs 5-intake LD/CD 400/100mg plus OPC 50mg, 4th LD/CD intake, mean
[11] = five-intake LD/CD 500/125 mg vs five-intake LD/CD 400/100 mg plus opicapone 50 mg, first LD/CD intake
[12] = five-intake LD/CD 500/125 mg vs five-intake LD/CD 400/100 mg plus opicapone 50 mg, fourth LD/CD intake
[13] = five-intake LD/CD 500/125 mg vs five-intake LD/CD 400/100 mg plus opicapone 50 mg
[14] = five-intake LD/CD 500/125 mg vs five-intake LD/CD 400/100 mg plus opicapone 50 mg, second LD/CD intake
[15] = five-intake LD/CD 500/125 mg vs five-intake LD/CD 400/100 mg plus opicapone 50 mg, third LD/CD intake
[16] = five-intake LD/CD 500/125 mg vs four-intake LD/CD 400/100 mg plus opicapone 50 mg, first LD/CD intake
[17] = five-intake LD/CD 500/125 mg vs four-intake LD/CD 400/100 mg plus opicapone 50 mg, fourth LD/CD intake
[18] = five-intake LD/CD 500/125 mg vs four-intake LD/CD 400/100 mg plus opicapone 50 mg
[19] = five-intake LD/CD 500/125 mg vs four-intake LD/CD 400/100 mg plus opicapone 50 mg, second LD/CD intake
[20] = five-intake LD/CD 500/125 mg vs four-intake LD/CD 400/100 mg plus opicapone 50 mg, third LD/CD intake
[21] = five-intake levodopa/carbidopa 500/125 mg vs five-intake levodopa/carbidopa 400/100 mg plus opicapone 50 mg
[22] = five-intake levodopa/carbidopa 500/125 mg vs four-intake levodopa/carbidopa 400/100 mg plus opicapone 50 mg

For levodopa/carbidopa [LD/CD], the “3-O-methyldopa Cmax,max, Geometric Mean (90% CI)” value ([1]; 5-intake LD/CD 500/125mg vs 4-intake LD/CD 400/100mg +OPC 50mg) was 4264 (3631, 5006) ng/mL, the “3-O-methyldopa AUCτ” value [1, 3] was 10068^a h*ng/mL and the “3-O-methyldopa Cmax” value [1, 3] was 3453 ng/mL. The “3-O-methyldopa Cmin” value [1, 3] was 3021 ng/mL, the 3-O-methyldopa tmax ([1]; 5-intake LD/CD 500/125mg vs 4-intake LD/CD 400/100mg plus OPC 50mg, 1st LD/CD intake) was 1.75 h and the “3-O-methyldopa Cmax” value [1, 4] was 3619 ng/mL. The “3-O-methyldopa Cmin” value [1, 4] was 3077 ng/mL, the 3-O-methyldopa tmax ([1]; 5-intake LD/CD 500/125mg vs 4-intake LD/CD 400/100mg plus OPC 50mg, 2nd LD/CD intake) was 2.5 h and the “3-O-methyldopa AUCτ” value [1, 5] was 14278^b h*ng/mL. For the same substance, the “3-O-methyldopa Cmax” value [1, 5] was 4011 ng/mL, the “3-O-methyldopa Cmin” value [1, 5] was 3437 ng/mL and the 3-O-methyldopa tmax ([1]; 5-intake LD/CD 500/125mg vs 4-intake LD/CD 400/100mg plus OPC 50mg, 3rd LD/CD intake) was 2.71 h. For the same substance, the “3-O-methyldopa AUCτ” value ([1]; 5-intake LD/CD 500/125mg vs 4-intake LD/CD 400/100mg plus OPC 50mg, 4th LD/CD intake, 1 patient) was 13519^c h*ng/mL, the “3-O-methyldopa Cmax” value [1, 6] was 4435 ng/mL and the “3-O-methyldopa Cmin” value [1, 6] was 3766 ng/mL. For the same substance, the 3-O-methyldopa tmax ([1]; 5-intake LD/CD 500/125mg vs 4-intake LD/CD 400/100mg plus OPC 50mg, 4th LD/CD intake) was 2.5 h, the “3-O-methyldopa Cmax,max” value ([1]; 5-intake LD/CD 500/125mg vs 4-intake LD/CD 400/100mg plus OPC 50mg) was 4447 (29.2) ng/mL and the “3-O-methyldopa Cmax,max, Geometric Mean (90% CI)” value ([1]; 5-intake LD/CD 500/125mg vs 5-intake LD/CD 400/100mg +OPC 50mg) was 4201 (3733, 4727) ng/mL. The “3-O-methyldopa AUCτ” value [1, 7] was 8991^g h*ng/mL, the “3-O-methyldopa Cmax” value [1, 7] was 3191 ng/mL and the “3-O-methyldopa Cmin” value [1, 7] was 2868 ng/mL. For the same substance, the 3-O-methyldopa tmax ([1]; 5-intake LD/CD 500/125mg vs 5-intake LD/CD 400/100mg plus OPC 50mg, 1st LD/CD intake) was 1.5 h, the “3-O-methyldopa AUCτ” value [1, 8] was 9002^d h*ng/mL and the “3-O-methyldopa Cmax” value [1, 8] was 3406 ng/mL. The “3-O-methyldopa Cmin” value [1, 8] was 2907 ng/mL, the 3-O-methyldopa tmax ([1]; 5-intake LD/CD 500/125mg vs 5-intake LD/CD 400/100mg plus OPC 50mg, 2nd LD/CD intake) was 2.5 h and the “3-O-methyldopa AUCτ” value ([1]; 5-intake LD/CD 500/125mg vs 5-intake LD/CD 400/100mg plus OPC 50mg, 3rd LD/CD intake, 1 patient) was 11951^c h*ng/mL. For the same substance, the “3-O-methyldopa Cmax” value [1, 9] was 3875 ng/mL, the “3-O-methyldopa Cmin” value [1, 9] was 3151 ng/mL and the 3-O-methyldopa tmax ([1]; 5-intake LD/CD 500/125mg vs 5-intake LD/CD 400/100mg plus OPC 50mg, 3rd LD/CD intake) was 2.5 h. The “3-O-methyldopa Cmax” value [1, 10] was 4170 ng/mL, the “3-O-methyldopa Cmin” value [1, 10] was 3586 ng/mL and the 3-O-methyldopa tmax ([1]; 5-intake LD/CD 500/125mg vs 5-intake LD/CD 400/100mg plus OPC 50mg, 4th LD/CD intake) was 2.71 h. For the same substance, the “3-O-methyldopa Cmax,max” value ([1]; 5-intake LD/CD 500/125mg vs 5-intake LD/CD 400/100mg plus OPC 50mg) was 4300 (22.4) ng/mL, the “Levodopa AUCτ” value [2, 11] was 1788^b h · ng/mL and the “Levodopa Cavg” value [2, 11] was 596^b ng/mL. For the same substance, the “Levodopa Cmax” value [2, 11] was 1356 ng/mL, the “Levodopa Cmin” value [2, 11] was 18.1 ng/mL and the Levodopa tmax [2, 11] was 0.5 h. For the same substance, the “Levodopa AUCτ” value [2, 12] was 2871^d h · ng/mL, the “Levodopa Cavg” value [2, 12] was 957^d ng/mL and the “Levodopa Cmax” value [2, 12] was 1540 ng/mL. The “Levodopa Cmin” value [2, 12] was 455 ng/mL, the Levodopa tmax [2, 12] was 1.5 h and the “Levodopa Cmax (over all intakes of the 12-hour pharmacokinetics; Cmax,max)” value [2, 13] was 1999 (26.3) ng/mL. For the same substance, the “Levodopa Cmin (over all intakes, excluding first predose; Cmin,min)” value [2, 13] was 267.0 (82.9) ng/mL, the “Levodopa AUCτ” value [2, 14] was 2269^b h · ng/mL and the “Levodopa Cavg” value [2, 14] was 756^b ng/mL. The “Levodopa Cmax” value [2, 14] was 1466 ng/mL, the “Levodopa Cmin” value [2, 14] was 283 ng/mL and the Levodopa tmax [2, 14] was 1.0 h. The “Levodopa AUCτ” value [2, 15] was 2871^d h · ng/mL, the “Levodopa Cavg” value [2, 15] was 957^d ng/mL and the “Levodopa Cmax” value [2, 15] was 1530 ng/mL. For the same substance, the “Levodopa Cmin” value [2, 15] was 365 ng/mL, the Levodopa tmax [2, 15] was 0.5 h and the “Levodopa AUCτ” value [2, 16] was 2076 ng·h/mL. The “Levodopa Cavg” value [2, 16] was 692 ng/mL, the “Levodopa Cmax” value [2, 16] was 1393 ng/mL and the “Levodopa Cmin” value [2, 16] was 18.6 ng/mL. For the same substance, the Levodopa tmax [2, 16] was 0.75 h, the “Levodopa AUCτ” value [2, 17] was 3414^d h · ng/mL and the “Levodopa Cavg” value [2, 17] was 1138^d ng/mL. The “Levodopa Cmax” value [2, 17] was 1852 ng/mL, the “Levodopa Cmin” value [2, 17] was 559 ng/mL and the Levodopa tmax [2, 17] was 1.5 h. The “Levodopa Cmax (over all intakes of the 12-hour pharmacokinetics; Cmax,max)” value [2, 18] was 2130 (25.8) ng/mL, the “Levodopa Cmin (over all intakes, excluding first predose; Cmin,min)” value [2, 18] was 264.5 (32.8) ng/mL and the “Levodopa AUCτ” value [2, 19] was 2637^c h · ng/mL. For the same substance, the “Levodopa Cavg” value [2, 19] was 879^c ng/mL, the “Levodopa Cmax” value [2, 19] was 1751 ng/mL and the “Levodopa Cmin” value [2, 19] was 266 ng/mL. The Levodopa tmax [2, 19] was 1.5 h, the “Levodopa AUCτ” value [2, 20] was 2850^f h · ng/mL and the “Levodopa Cavg” value [2, 20] was 950^f ng/mL. The “Levodopa Cmax” value [2, 20] was 1310 ng/mL, the “Levodopa Cmin” value [2, 20] was 403 ng/mL and the Levodopa tmax [2, 20] was 1.5 h. The “Levodopa Cmin,min, geometric mean (90% CI)” value [2, 21] was 218.9 (156.1, 307.0) ng/mL, the “Levodopa Cmax,max, geometric mean (90% CI)” value [2, 21] was 1931 (1667, 2237) ng/mL and the “Levodopa Cmin,min, geometric mean (90% CI)” value [2, 22] was 252.2 (211.4, 301.0) ng/mL. The “Levodopa Cmax,max, geometric mean (90% CI)” value [2, 22] was 2059 (1782, 2380) ng/mL.
